Assay results published in patent EP4389106A1, “METHOD OF PREPARATION OF LIPOSOMAL C[…] […] AND LIPOSOMAL C[…] […]” (Aero-Bw K. Domagala Sp. Jawna, priority 2022, dated 2024).
Several values for one entry are separate records, joined by “and”; a condition that tells them apart may be missing. Equal entries are not always repeated.

Tested on: Salmonella typhimurium TA98
Experiment: Ames test, strain TA98 (reading frame shift)
Type: cell-based
Conditions: positive control at 2 µg/mL
Protocol: The aim of the study was to assess the mutagenic potential of three extracts obtained from stem cells using two strains of Salmonella typhimurium carrying two types of mutations: TA 98-reading frame shift and TA 100-base pair substitution.
The experimental procedure was carried out basing on the manufacturer's experimental protocol (Xenometrix).

## O=[N+]([O-])c1ccc2c(c1)Cc1ccccc1-2 [Extract 2-NF, 2-nitrofluorene]
  MOI (Multiplicity of induction compared to baseline): 6.9 and 5.6
